# Entries after “also recorded” stand apart in the source; their conditions may differ. Read-outs that look alike come from different tables or passages of the source. Where no end group is shown, it is not given here. 4MPA = not defined here
# Experiments:
# SARS-CoV-2 (B.1.1.63) [1] = experiment: Post-infection treatment, viral titers in supernatants; conditions: 4H30 added at 6 hpi
# HRV-1B = HRV-1B infection, supernatant viral RNA by RT-qPCR; format: cell-based; conditions: RD or H1-Hela cells, 30 hpi
# Protocol: (§1) Viruses were treated by 4H30 for infection in RD or H1-Hela cells. Viruses, HRV-1B and HRV-B14 were treated by 4H30 in PBS for 30 min and then the treated viruses were added to RD or H1-Hela cells for infection. After 1 h infection, the un-infected viruses were removed and fresh media with the indicated concentration of 4H30 was added to cells for viral culture. The supernatant viruses were measured at 30 hpi by RT-qPCR. Viral RNA copy (%) was the viral RNA of 4H30-treated virus normalized to that of untreated virus (0). […] The primers for detecting the viral RNA copies: HRV-F1: 5′-[…] -3′; HRV-F2: 5′-[…] -3′, HRV-R: 5′-[…] -3′; HRV-Probe: 5′ HEX-[…] -1ABKFQ 3′ (Y=C or T, K=G or T). The supernatant viruses were measured at 30 hpi.
# [2] = ELISA binding of 4H30 to heparan sulfate; conditions: compared with BSA
# SARS-CoV-2 [3] = format: cell-based
# H1N1 virus = experiment: H1N1 plaque reduction assay; format: cell-based; conditions: virus treated in PBS 30 min, VeroE6
# [4] = ELISA binding of 4H30 to chondroitin sulfate; conditions: compared with BSA
# VeroE6 cells = experiment: MTT cytotoxicity assay in VeroE6 cells; format: cell-based
# Protocol: Cytotoxicity of peptides was determined by the detection of 50% cytotoxic concentration (CC50) using a tetrazolium-based colorimetric MTT assay (H. Zhao, et al., Sci Rep, 6 (2016) 22008). Briefly, cells were seeded in 96-well cell culture plate at an initial density of 4×10^4 cells per well in DMEM supplemented with 10% FBS and incubated for overnight. Cell culture media were removed and then DMEM supplemented with various concentrations of peptides and 1% FBS were added to each well. After 24 h incubation at 37° C., MTT solution (5 mg ml^−1, 10 μl per well) was added to each well for incubation at 37° C. for 4 h. Then, 100 μl of 10% SDS in 0.01M HCl was added to each well. After further incubation at room temperature with shaking overnight, the plates were read at OD570 using VictorTM X3 Multilabel Reader (PerkinElmer, USA). Cell culture wells without peptides were used as the experiment control and medium only served as a blank control.
# SARS-CoV-2 (B.1.163) = experiment: Post-exposure antiviral activity in hamsters, B.1.163; conditions: hamster, in vivo
# [5] = tested on: spike-ACE2 mediated fusion; format: cell-based; conditions: endocytosis pathway
# SARS-CoV-2 [6] = experiment: Nucleoprotein (NP) immunofluorescence assay; format: cell-based; conditions: VeroE6; virus pretreated; compared with untreated virus
# HRV-B14 = HRV-B14 infection, supernatant viral RNA by RT-qPCR; format: cell-based; conditions: RD or H1-Hela cells, 30 hpi
# Protocol: as §1
# spike = spike (Severe acute respiratory syndrome coronavirus 2, UniProt P0DTC2); conditions: ELISA
# Protocol: (§2) For determining spike and ACE2 binding, 60 ng S or ACE2 in PBST was incubated with peptides at 37° C. for 30 min.
# [7] = tested on: SARS-CoV-2 (B.1. 617.2, Delta); experiment: Post-exposure antiviral activity in hamsters, Delta; format: in vivo, hamster; conditions: 0.5 mg kg^−1, post exposure
# SARS-CoV-2 [8] = experiment: Plaque reduction assay against SARS-CoV-2; format: cell-based
# Protocol: Briefly, peptides were dissolved in PBS or 30mM phosphate buffer (PBS/5) containing 24.6 mM Na2HPO4 and 5.6 mM KH2PO4 at a pH of 7.4. Peptides or bovine serum albumin (BSA, 0.2-25.0 μg ml^−1) were premixed with SARS-CoV-2 at room temperature. After 45-60 min of incubation, peptide-virus mixture was transferred to Vero-E6 cells, correspondingly. At 1 h post infection, infectious media were removed, and 1% low melting agar was added to cells. Cells were fixed using 4% formalin at 2-3 day post infection. […] (0.1%) was added for staining, and the number of plaques was counted.
# SARS-CoV-2 [9] = experiment: Transmission electron microscopy assay; conditions: virus pretreated
# Protocol: To determine the effect of 4H30 on viral particles, SARS-CoV-2 was pretreated by 100 μg ml^−1 of 4H30 or H30 for 1 h. The virus was fixed by formalin for overnight. For spike treated by 4H30 or H30, spike (100 μg ml^−1 mixed with 50 μg ml^−1 of 4H30 or H30. Viral or protein samples were applied to continuous carbon grids. The grids were transferred into 4% uranyl acetate and incubated for 1 min. After removing the solution, the grids were air-dried at room temperature. For each peptide/DNA nanoparticle, three independent experiments were done for taking TEM images by FEI Tecnal G2-20 TEM or Philips CM100-TEM.
# SARS-CoV-2 [10] = experiment: Viral release assay; format: cell-based
# spike and ACE2 = spike and ACE2 (Severe acute respiratory syndrome coronavirus 2, UniProt P0DTC2); conditions: ELISA
# Protocol: as §2
# SARS-CoV-2 [11] = experiment: Antiviral activity of GAG-treated 4H30 (viral RNA copy); format: cell-based
# SARS-CoV-2 (B.1.1.63) [12] = experiment: Pre-exposure antiviral activity in hamsters; format: in vivo, hamster
# SARS-CoV-2 [13] = experiment: Viral entry fluorescence assay; format: cell-based
substance,measurement,setting,value
GAICHPVFCPRRYKQIGTCGLPGTKCCKKP-4MPA (cysteine pairing not given here; reading uncertain; also: printed as GAICHPVFCPRRYKQIGTCGLPGTKCCKKP-4MPA) [Peptide 4H30],SARS-CoV-2 replication,SARS-CoV-2 (B.1.1.63) [1]; Calu-3 cells,significantly inhibited
same,SARS-CoV-2 replication,SARS-CoV-2 (B.1.1.63) [1]; VeroE6 cells,significantly inhibited
same,"inhibition of HRV-1B, viral RNA copy",HRV-1B,effectively inhibited
same,binding to heparan sulfate (HS),[2],effectively bind
same,attachment of SARS-CoV-2 to cells,SARS-CoV-2 [3]; 4H30 pretreated by GAGs,significantly reduced
same,attachment of SARS-CoV-2 to cells,SARS-CoV-2 [3]; A549 (ACE2^−) cells treated by 4H30,significantly increased
same,attachment of SARS-CoV-2 to cells,SARS-CoV-2 [3]; Calu-3 (ACE2^+) cells treated by 4H30,significantly increased
same,attachment of SARS-CoV-2 to cells,SARS-CoV-2 [3]; cells pretreated by Chondroitinase ABC and Heparinase,significantly reduced
same,H1N1 virus replication,H1N1 virus,significantly inhibited
same,binding to chondroitin sulfate (CS),[4],effectively bind
same,TC50,VeroE6 cells,higher than 400 μg ml^−1
same,SARS-CoV-2 replication in lungs,SARS-CoV-2 (B.1.163),significantly inhibit
same,spike-ACE2 mediated cell fusion,[5],blocking of spike-ACE2 mediated fusion
same,"anti-NP staining, viral replication",SARS-CoV-2 [6],viral replication was significantly inhibited and restricted in very few cells
same,"inhibition of HRV-B14, viral RNA copy",HRV-B14,effectively inhibited
same,binding to spike,spike,more effectively bound to spike when compared with ACE2
same,SARS-CoV-2 replication in hamsters,[7],significantly inhibited
same,syncytium formation and bronchial epithelial pathology in lungs,[7],reduced the syncytium formation and bronchial epithelial pathology
same,IC50,"SARS-CoV-2 [8]; virus premixed with peptide in PBS, plaque reduction",0.59 µg/mL
same,SARS-CoV-2 infection after dilution of treated virus,"SARS-CoV-2 [8]; virus pretreated by 50 μg ml^−1, then 10,000-fold diluted (0.005 μg ml^−1)",significantly inhibited SARS-CoV-2 infection
same,integrity of viral particles under TEM,SARS-CoV-2 [9],did not disrupt viral particles
same,viral clusters under TEM,SARS-CoV-2 [9],cross-linked SARS-CoV-2 to form bigger viral clusters
same,intracellular replicative process,SARS-CoV-2 [10],not on the intracellular replicative process
same,"viral release, viral load in supernatants",SARS-CoV-2 [10],significantly inhibit viral release; also recorded: significantly inhibited SARS-CoV-2 release
same,antiviral activity of 4H30 on viral release,SARS-CoV-2 [10]; 4H30 pretreated by CS or HS,significantly reduced
same,inhibitory activity of 4H30 on SARS-CoV-2 release,SARS-CoV-2 [10]; 4H30 with BSA,did not significantly affect
same,binding between spike and ACE2,spike and ACE2,did not significantly affect
same,antiviral activity of GAG-treated 4H30,SARS-CoV-2 [11]; 4H30 treated by 1250 ng/ml of CS or HS,significantly reduced
same,antiviral activity of GAG-treated 4H30,SARS-CoV-2 [11]; CS or HS in physiological concentration (50˜100 ng/ml),still significantly inhibit viral replication
same,syncytia and epithelial cell disorder in bronchial tree,SARS-CoV-2 (B.1.1.63) [12]; 4H30-0.05,not found
same,SARS-CoV-2 replication in lungs,"SARS-CoV-2 (B.1.1.63) [12]; hamster, in vivo",significantly inhibited SARS-CoV-2 replication
same,antiviral activity,"SARS-CoV-2 (B.1.1.63) [12]; hamster, in vivo",did not show antiviral activity
same,reduction of viral replication,"SARS-CoV-2 (B.1.1.63) [12]; hamster, in vivo",2.3 fold
same,viral replication in lungs,"SARS-CoV-2 (B.1.1.63) [12]; hamster, in vivo",significantly inhibited viral replication
same,viral clustering and entry,SARS-CoV-2 [13],did not cluster viral particles and did not block viral entry
same,viral clustering and entry,"SARS-CoV-2 [13]; virus pretreated, Calu-3 and VeroE6 cells",cross-link SARS-CoV-2 to form big viral clusters on Calu-3 and VeroE6 cell membrane without viral entry

# Reference: US20250171511A1, “ANTIVIRAL PEPTIDES AND METHODS OF USE THEREOF” (Versitech Limited, priority 2021, published 2025)
